In article PMC8000395, “Effective Small Molecule Antibacterials from a Novel Anti-Protein Secretion Screen” (Microorganisms, 2021):
“And” between values parts separate entries of the source, which are not always exact repeats. Identical values can stand only once. Like-named read-outs stand apart in the source and are kept apart here.

Assays:
[1] = system: E. coli BW25113ΔtolC; assay: Antimicrobial activity test (growth, OD600); conditions: for Higher sensitivity of ΔtolC and imp-2413+ derivatives compared to BW25113: viability, Figure 5A
[2] = system: PhoA secretion in BW25113ΔtolC; assay: Lab-scale p-nitrophenyl PhoA secretion assay, ΔtolC strain; assay type: cell-based, E. coli
[3] = Turbidimetric kinetic aqueous solubility assay; assay type: physicochemical; conditions: kinetic from dmso stock
Experimental: The determination of the aqueous solubility of compounds in this assay is based on the principle of turbidimetry. Turbidimetric methods rely on the measurement of light scattering from precipitate in solution to determine the solubility. Precipitation is identified by an absorbance increase due to blockage of the light by the particles at the wavelength of 570 nm. Compounds, stored in matrix vials (Thermo Fisher) at a stock concentration of 30 mM or 10 mM in 100% Dimethyl sulfoxide (DMSO), were used to make a serial dilution (dose-response) in a 96-well v-bottom propylene plate (Greiner, 651201). Serial dilutions are made to perform the solubility assay; they were made row-wise and start with undiluted compound (30 mM or 10 mM) in the first well and were then 1 over 3 diluted further on. The serial dilutions were eight doses long and contain six compounds per plate maximal (rows B-G). Columns 1 and 12 were filled with 100% DMSO for control purposes. The dose-response plates were 200-times diluted in 300 µL Phosphate Buffered Saline (PBS; pH = 7–7.2 without Ca^2+/Mg^2+) (Gibco, 14190-144) by transferring 1.5 µL of serially diluted compound. […] Dilutions were made by diluting one 96-well plate in two 96-well, flat-bottom, polystyrene plates (Greiner, 655101). These plates were then incubated at room temperature for 1h. After 1h incubation, the plates were read on the envision (Perkin Elmer) at 570 nm.
The data of this assay is reported as “Soluble at” value for each compound. This “soluble at” value represents the concentration where the compound is still soluble and is the concentration before the first precipitated concentration. The first precipitated concentration is the concentration where the absorbance value is more than five standard deviations higher than the average background absorbance. The average background absorbance and the standard deviation are calculated on the 0.5% DMSO controls in columns 1 and 12.

[4] = system: Klebsiella pneumoniae ATCC 27799; assay: Antimicrobial activity test (growth, OD600); assay type: cell-based; conditions: ATCC27799, read-out: Bacterial Viability (IC50)
[5] = system: Streptococcus pneumoniae; assay: Antimicrobial activity test (growth, OD600); assay type: cell-based; conditions: read-out: Bacterial Viability (IC50)
[6] = system: Gram-negative and Gram-positive bacteria; assay: Antimicrobial activity test, summary over Gram-negative and Gram-positive bacteria; assay type: cell-based; conditions: for Antibacterial character: 19 Gram-negative and Gram-positive species evaluated; for IC50: summary over species, read-out: Viability of Gram-negative and Gram-positive bacteria IC50 (range over species)
[7] = system: PhoA secretion in E. coli strain BL21 (pLysS); assay: Luminescence-based HTS assay of in vivo PhoA secretion; assay type: cell-based; conditions: Escherichia coli, BL21, luminescence-based HTS assay, E. coli BL21; read-out: Inhibition of PhoA Secretion IC50, HTS
[8] = system: PhoA secretion in E. coli MC4100; assay: microbe, parasite or virus in culture; assay type: cell-based; conditions: Escherichia coli; PNPP colorimetric lab-scale assay; read-out: Inhibition of PhoA Secretion IC50, Lab-Scale
[9] = system: Morganella morganii; assay: Antimicrobial activity test (growth, OD600); assay type: cell-based; conditions: read-out: Bacterial Viability (IC50)
[10] = system: Providencia stuartii; assay: Antimicrobial activity test (growth, OD600); assay type: cell-based; conditions: read-out: Bacterial Viability (IC50)
[11] = system: B. subtilis ATCC6633; assay: Antimicrobial activity test (growth, OD600); assay type: cell-based; conditions: Bacillus subtilis, ATCC6633; 20 h, 37 °C, OD600; read-out: Bacterial Viability IC50, B. subtilis ATCC6633
[12] = system: E. coli BW25113; assay: Antimicrobial activity test (growth, OD600); assay type: cell-based; conditions: Escherichia coli, 20 h, 37 °C, read-out: Bacterial Viability IC50, E. coli BW25113
[13] = system: Enterococcus faecium ATCC 804B; assay: Antimicrobial activity test (growth, OD600); assay type: cell-based; conditions: ATCC804B, read-out: Bacterial Viability (IC50)
[14] = system: Enterobacter cloacae; assay: Antimicrobial activity test (growth, OD600); assay type: cell-based; conditions: read-out: Bacterial Viability (IC50)
[15] = system: Pseudomonas aeruginosa 3/88; assay: Antimicrobial activity test (growth, OD600); assay type: cell-based; conditions: read-out: Bacterial Viability (IC50)
[16] = system: Campylobacter jejuni; assay: Antimicrobial activity test (growth, OD600); assay type: cell-based; conditions: read-out: Bacterial Viability (IC50)
[17] = system: E. coli BL21; assay: Antimicrobial activity test (growth, OD600); assay type: cell-based; conditions: Escherichia coli, BL21, BL21; 20 h, 37 °C, OD600; read-out: Bacterial Viability IC50, E. coli BL21
[18] = system: Shigella sonnei; assay: Antimicrobial activity test (growth, OD600); assay type: cell-based; conditions: read-out: Bacterial Viability (IC50)
[19] = system: Staphylococcus aureus ATC6538P; assay: Antimicrobial activity test (growth, OD600); assay type: cell-based; conditions: Staphylococcus aureus ATC6538P; read-out: Bacterial Viability (IC50)
[20] = system: Proteus vulgaris; assay: Antimicrobial activity test (growth, OD600); assay type: cell-based; conditions: read-out: Bacterial Viability (IC50)
[21] = system: HEK293T cells; conditions: 24 h; for Toxicity of Mammalian Cells (HEK293T) LD50: human
Experimental: Hek293T cells were harvested and diluted obtaining a cell suspension with a concentration of 200,000 cells/mL in complete growth medium (DMEM, 4.5 g/L d-glucose, pyruvate 1 mM, 0.075% bicarbonate and 10% Fetal Bovine serum). Of this cell suspension, 50 µL (10,000/well) was seeded in a 384 well culture plate (white polystyrene, tissue culture treated) and incubated at 37 °C-5% CO2 for 4 h in a moisturized incubator, which enables the cells to adhere. After the incubation, small chemical compounds were diluted in medium and 10 µL of a compound solution was added onto the cells, ending up with the required compound concentration. The cells were incubated for 24 h at 37 °C-5% CO2 in a moisturized incubator where after × µL medium was removed to equalize the liquid levels within one plate ending up with ±25 µL/well. The amount of remaining cells/well was determined with ATPlite^TM 1step (Perkin Elmer) Adenosine TriPhosphate (ATP) monitoring system, which is based on firefly luciferase.
The cytotoxicity was calculated by subtracting RLU (relative light units) obtained from the cells incubated with a compound from the RLUs obtained from cells in the presence of the vehicle.
The cytotoxic effect of a test compound was determined as:
Percent cell death = [1−((RLU determined for sample with test compound present—1) divided by (RLU determined in the presence of vehicle—1))] * 100.

[22] = Escherichia coli, read-out: Inhibition of PhoA Secretion IC50, Lab-Scale (ΔtolC strain), BW25113ΔtolC, p-nitrophenyl assay
[23] = Escherichia coli, read-out: Inhibiton of PhoA secretion in ΔtolC strain (Lab-scale) IC50, selection threshold of the screening pipeline, Figure 1B
[24] = pH 7, aqueous buffer, turbidimetry 570 nm, PBS pH 7–7.2, 0.5% DMSO, 1 h, read-out: Aqueous Solubility (soluble at)
[25] = pH 7.1, aqueous buffer, selection threshold, Figure 1B, read-out: Solubility

For `O=C(/C=C/c1csnn1)c1ccccc1Cl` [HSI#01], the IC50 ([1]; Escherichia coli, read-out: Viability IC50, BW25113ΔtolC, E. coli strain missing TolC) was < 14 µM, the “Higher sensitivity of ΔtolC and imp-2413+ derivatives compared to BW25113” value [1] was 2 to 40 times and the IC50 [2, 22] was 1.37 µM. The IC50 [2, 23] was < 2 µM, the IC50 ([2]; read-out: Inhibition of PhoA Secretion IC50, Lab-Scale (ΔtolC strain), BW25113ΔtolC, p-nitrophenyl assay) was 1.4 µM and the solubility at 1 h [3, 24] was 50 µM and 12.5 µg/mL. For the same compound, the solubility at 1 h [3, 25] was > 15 µM, the IC50 [4] was 80 to 100 µM and the IC50 [5] was 77.8 µM. The Antibacterial character [6] was “bacteriocidal”, the IC50 [6] was 1 to 37 µM and the IC50 [7] was 11.9 µM. The IC50 [8] was 12.5 µM, the IC50 [9] was > 100 µM and the IC50 [10] was > 100 µM. For the same compound, the IC50 [11] was 37.6 µM, the IC50 [12] was > 100 µM and the IC50 [13] was 34.5 µM. For the same compound, the IC50 [14] was > 100 µM, the IC50 [15] was > 100 µM and the IC50 [16] was > 100 µM. For the same compound, the IC50 [17] was > 100 µM, the IC50 [18] was > 100 µM and the IC50 [19] was 14.8 µM. The IC50 [20] was 80 to 100 µM, the “Human cell toxicity LD50” value [21] was > 15 µM and the “Toxicity of Mammalian Cells (HEK293T) LD50” value (“Toxicity of Mammalian Cells” below) [21] was 6.7 µM.
In the case of `O=C(/C=C/c1csnn1)c1cc(Cl)ccc1Cl` [HSI#05], the IC50 ([1]; read-out: Viability IC50, BW25113ΔtolC, E. coli strain missing TolC, listed as HSI#5) is reported as < 14 µM, the “Higher sensitivity of ΔtolC and imp-2413+ derivatives compared to BW25113” value [1] is reported as 2 to 40 times and the IC50 [2, 22] is reported as 0.94 µM. For the same compound, the IC50 [2, 23] was < 2 µM, the solubility at 1 h [3, 24] was 4.8 µg/mL and the solubility at 1 h [3, 25] was > 15 µM. For the same compound, the IC50 [4] was > 100 µM, the IC50 [5] was 29.7 µM and the Antibacterial character [6] was “bacteriocidal”. The IC50 [6] was 1 to 37 µM, the IC50 [7] was 35.2 µM and the IC50 [8] was 7 µM. The IC50 [9] was > 100 µM, the IC50 [10] was > 100 µM and the IC50 [11] was 27.8 µM. For the same compound, the IC50 [12] was > 100 µM, the IC50 [13] was 9.4 µM and the IC50 [14] was > 100 µM. For the same compound, the IC50 [15] was > 100 µM, the IC50 [16] was > 100 µM and the IC50 [17] was > 100 µM. The IC50 [18] was > 100 µM, the IC50 [19] was 4.1 µM and the IC50 [20] was > 100 µM. The “Human cell toxicity LD50” value [21] was > 15 µM and the “Toxicity of Mammalian Cells” value [21] was 6.7 µM.
With `O=C(/C=C/c1csnn1)c1cccc2ccccc12` [HSI#10] the “Higher sensitivity of ΔtolC and imp-2413+ derivatives compared to BW25113” value [1] was 2 to 40 times, the IC50 [2, 22] was 0.99 µM and the IC50 [2, 23] was < 2 µM. The solubility at 1 h [3, 24] was 4.4 µg/mL, the solubility at 1 h [3, 25] was > 15 µM and the IC50 [4] was > 100 µM. For the same compound, the IC50 [5] was 60.9 µM, the Antibacterial character [6] was “bacteriocidal” and the IC50 [6] was 1 to 37 µM. For the same compound, the IC50 [7] was 20 µM, the IC50 [8] was 19.6 µM and the IC50 [9] was > 100 µM. The IC50 [10] was > 100 µM, the IC50 [11] was 26 µM and the IC50 [12] was > 100 µM. The IC50 [13] was 23.5 µM, the IC50 [14] was > 100 µM and the IC50 [15] was > 100 µM. For the same compound, the IC50 [16] was > 100 µM, the IC50 [17] was > 100 µM and the IC50 [18] was > 100 µM. The IC50 [19] was 7.8 µM, the IC50 [20] was > 100 µM and the “Human cell toxicity LD50” value [21] was > 15 µM. The “Toxicity of Mammalian Cells” value [21] was 6.7 µM.
